Results from PubChem BioAssay AID449762 (Southern Research Specialized Biocontainment Screening …, 2010).
Inconclusive results are not listed.

Tested on: M. tuberculosis H37Rv growth inhibition, 7H9 media
Experiment: M. tuberculosis growth inhibition, HTS (AID 449762);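 further: bacterial growth assessed after seven days of incubation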
Details: for IC90: measured here: IC90 growth inhibition

COc1ccccc1C1CCN(Cc2ccc3ccccc3c2)CC1
IC50: 15.7 µM | IC90: 21.8 µM

O=C(COC(=O)c1cccs1)c1ccccc1
IC50: 45 µM | IC90: > 100 µM

CCCC(=O)Nc1ccc(C(=O)/C=C/c2ccc(SC)cc2)cc1
IC50: 22.9 µM | IC90: 37.1 µM

CCOC(=O)c1c(NC(=O)CCl)sc(CN(C)C)c1-c1ccccc1
IC50: 0.92 µM | IC90: 4.68 µM

Cc1cc(C)n(-c2cc(C(C)(C)C)nc3c(-c4ccccc4)cnn23)n1
IC50: 27.3 µM | IC90: 34.7 µM

C[C@]12C=CC(=O)C=C1CC[C@@H]1C2=CC[C@]2(C)[C@@H](C(=O)CN3CCN(c4cc(N5CCCC5)nc(N5CCCC5)n4)CC3)CC[C@@H]12
IC50: 22.5 µM | IC90: 30.4 µM

Nc1ccc(Oc2ccc(F)cc2)nc1
IC50: 60.6 µM | IC90: 90.1 µM

CCOc1ccc(N=CC2=C(O)CC(c3ccco3)CC2=O)cc1 (stereo not given)
IC50: 80.4 µM | IC90: > 100 µM

COc1cc(OC)c(OC)cc1CCC(C)NCCC(c1ccccc1)c1ccccc1 (stereo not given)
IC50: 22.3 µM | IC90: 25 µM

Cc1cc(N/N=C/c2ccccc2[N+](=O)[O-])nc(-n2nc(C)cc2C)n1
IC50: 0.92 µM | IC90: 4.72 µM

O=c1c2cc(Br)cc(Br)c2oc2nc3n(c(=O)c12)CCCS3
IC50: 5.87 µM | IC90: 13.1 µM

Cc1ccc(-c2ccnc(=S)[nH]2)cc1
IC50: 44.9 µM | IC90: > 100 µM

Cc1ccc2c(c1)c(C1=c3ccccc3=NC1=O)c(O)n2C
IC50: 1.17 µM | IC90: 3.07 µM

O=C(Oc1ccccc1-c1nnco1)c1ccc(Cl)cc1
IC50: 10.3 µM | IC90: 44.7 µM

O=C(c1ccco1)N1CCN(C(=O)C2CC(c3ccc(Cl)c(Cl)c3)=NO2)CC1 (stereo not given)
IC50: 3.88 µM | IC90: 11 µM

O=C(N[C@H]1CCC(=O)N(CCSc2ccc(Br)cc2)CC1)OCc1ccccc1
IC50: 23.3 µM | IC90: 28.6 µM

CCN1C(=NCCc2ccc(Br)cc2)N[C@@H](c2ccccc2)[C@H](C(=O)OC)[C@H]1C
IC50: 16.7 µM | IC90: 22.1 µM

O=C(N/N=C/c1cccc2cccnc12)[C@H]1C[C@@H]1c1ccccc1
IC50: 18.6 µM | IC90: 34.7 µM

COC(=O)C1=C(c2ccc(OCc3ccccc3)cc2)C[C@@H]2CC[C@H]1N2C(=O)NC1CCN(Cc2ccccc2)CC1
IC50: 24.4 µM | IC90: 27.5 µM

CCc1ccc2nc(N(CCCN(C)C)C(=O)c3ccc(S(=O)(=O)N4CCCc5ccccc54)cc3)sc2c1
IC50: 28.1 µM | IC90: 33.9 µM

CC(C)(C)C1CCc2nc(NC(=O)Cc3cn4ccsc4n3)sc2C1 (stereo not given)
IC50: 15.5 µM | IC90: 39.6 µM

CCN(CC)C(=O)c1cc([N+](=O)[O-])cc2c1-c1ccc([N+](=O)[O-])cc1C2=C(C#N)C#N
IC50: 21.3 µM | IC90: 23.8 µM

CCOC(=O)c1cnc(Nc2nc3ccccc3o2)nc1CSC(=S)N(CC)CC
IC50: 20.5 µM | IC90: 25.4 µM

N/C(=N\OC(=O)Nc1ccc(Cl)c(Cl)c1)c1ncc(C(F)(F)F)cc1Cl
IC50: 41.9 µM | IC90: 45.8 µM

O=Nc1c2nc3ccccc3n(O)c-2c2ccccc12
IC50: 10.7 µM | IC90: 15.7 µM

CCN(CC)c1ccc(N)cc1
IC50: 7.15 µM | IC90: 9.95 µM

CC(Sc1nnc(NC2CCCCC2)s1)C(=O)Nc1ccc2c(c1)C(=O)c1ccccc1C2=O (stereo not given)
IC50: 11.5 µM | IC90: 12.6 µM

COc1cccc(NC(=S)/C(=C(\[O-])c2cc(C)n(-c3ccccc3F)c2C)[n+]2ccc(N(C)C)cc2)c1
IC50: 55.9 µM | IC90: 70.9 µM

CC1CC(C)CN(C(=O)C2CCC(CNc3c(N4CCCCC4)c(=O)c3=O)CC2)C1 (stereo not given)
IC50: 19.3 µM | IC90: 71.7 µM

CC(Oc1cc2oc(=O)c3c(c2cc1Cl)CCCC3)C(=O)NCc1ccccn1 (stereo not given)
IC50: 7.47 µM | IC90: > 100 µM

O=C(C/C=N\OCc1ccc([N+](=O)[O-])cc1)Nc1ccc(F)cc1F
IC50: 20.3 µM | IC90: 98.4 µM

Cc1ccc(NC(=O)CCl)cc1S(=O)(=O)N1CCCCCC1
IC50: 2.6 µM | IC90: 5.03 µM

Cc1cc(C)c(C)c(N=Nc2nc3ccccc3n2C)c1C
IC50: 6.16 µM | IC90: 6.93 µM

Cc1ccc(NC(=O)C2=C(O)CCn3c2nc2ccccc23)cc1
IC50: 1.21 µM | IC90: 20.6 µM

CCc1ccc(NCc2ccc(OC)c(Cn3ccnc3)c2)cc1
IC50: 21.5 µM | IC90: 23.9 µM

CC(C)OC(=O)c1ccc(COC(=O)c2cnccn2)cc1
IC50: 7.68 µM | IC90: > 100 µM

Cc1c2c(nc3ccccc13)CCC(C)C2 (stereo not given)
IC50: 33.8 µM | IC90: 61.8 µM

CC(C)(C)c1ccc(C(O)CCCN2CCC(C(O)(c3ccccc3)c3ccccc3)CC2)cc1 (stereo not given)
IC50: 12.2 µM | IC90: 17.4 µM

CCC(C)N1CCC2(CC1)N=c1c(c3c4c5c(C)c(O)c3c(O)c1=NC(=O)C(C)=CC=C[C@H](C)[C@H](O)[C@@H](C)[C@@H](O)[C@@H](C)[C@H](OC(C)=O)[C@H](C)[C@@H](OC)C=CO[C@@](C)(O5)C4=O)N2 (stereo not given in full)
IC50: < 0.2 µM | IC90: < 0.2 µM

CCOC(=O)c1ccc(Nc2cc3ccccc3c(=O)[nH]2)cc1
IC50: 72.3 µM | IC90: > 100 µM

C/C(=N\NC(=O)COc1ccc(C)cc1Br)c1cc([N+](=O)[O-])cs1
IC50: 4.07 µM | IC90: 34.1 µM

CCN(CC)c1nc(NN)nc(Nc2ccc(C)c(Cl)c2)n1
IC50: 2.85 µM | IC90: 6.27 µM

O=C(CCn1c(=O)c2cccn2c2cccnc21)N1CCN(c2cccc(Cl)c2)CC1
IC50: 30.6 µM | IC90: 41.8 µM

COc1ccc(/C=N/OCC(=O)OCC(=O)N(C)c2ccccc2)cc1
IC50: 8.22 µM | IC90: 39.1 µM

CCc1cccc2c(=O)c(C(=O)N3CCOCC3)c[nH]c12
IC50: 6.62 µM | IC90: 14.2 µM

CC1CCCC(NC(=O)NC(=O)CCl)C1C (stereo not given)
IC50: 3.25 µM | IC90: 7.38 µM

O=C(OCC(=O)c1cccs1)C1=COCCO1
IC50: 21.4 µM | IC90: > 100 µM

Cc1ccc(C)c(S(=O)(=O)N2CCC(c3nc4c(nnn4Cc4ccc5c(c4)OCCO5)c(=O)[nH]3)CC2)c1
IC50: 23.1 µM | IC90: > 100 µM

Clc1ccc(C(Cn2ccnc2)OCc2csc3c(Cl)cccc23)c(Cl)c1 (stereo not given)
IC50: 15.8 µM | IC90: 24.8 µM

CC12CCC(=O)N1C(C(=O)Nc1ccc(SC(F)F)cc1)CS2 (stereo not given)
IC50: 30.2 µM | IC90: 63.1 µM

COC(=O)c1cccc(C#CC(NP(=O)(c2ccccc2)c2ccccc2)c2ccccc2)c1 (stereo not given)
IC90: > 100 µM

CN(C)C1(CNC(=O)Nc2ccc(Cl)c(Cl)c2)CCCCC1
IC50: 11.2 µM | IC90: 12.5 µM

CCOc1ccc(-c2cc(CCCC(=O)NCCC(C)C)no2)cc1
IC50: 6.53 µM | IC90: 14.3 µM

CCOC(=O)CNC(=S)n1cnc(N)n1
IC50: 27.8 µM | IC90: 60.6 µM

CCOc1cc(/C=N\NC(=O)Cn2nc([N+](=O)[O-])cc2C)ccc1OCc1cccc2ccccc12
IC90: > 100 µM

Cc1cc(C)c2nc(-c3ccncc3)cc(C(=O)N3CCN(Cc4ccccc4Cl)CC3)c2c1
IC50: 23.2 µM | IC90: 26.1 µM

Cc1ccc(C(=O)Nc2cccc(C(F)(F)F)c2)cc1Nc1ncnc2nc[nH]c12
IC50: 50 µM | IC90: > 100 µM

C=CCNC(=O)c1onc(CCl)c1C(=O)OC
IC50: 1.66 µM | IC90: 5.93 µM

CC(=O)c1sc(NC(=O)c2cc(=O)c3ccccc3o2)nc1C
IC50: 14.3 µM | IC90: > 100 µM

COc1ccc(C=C2C=C(C(C)(C)C)C(=O)C(C(C)(C)C)=C2)cc1OC
IC50: 2.94 µM | IC90: 5.15 µM

COc1ccc2c(c1)CCc1c(C(=O)Nc3c(C)n(C)n(-c4ccccc4)c3=O)noc1-2
IC50: 14.2 µM | IC90: > 100 µM
